As usually defined, the IC50 is the concentration at which inhibition is half-maximal.

The values that follow come from US10508109B2 (priority 2015, dated 2019).

Assay [1] concerns the target SUV39H2 (Homo sapiens (Human), UniProt Q9H5I1). Particulars: read-out: IC50 (μM) Suv 39H2 assay; enzyme assay.
Assay [2] deals with PC14. Briefly: Cell-based assay, anti-proliferative activity (Cell Counting Kit-8, 72 hours). The note with it: Homo sapiens, PC-14; PC14 cells, Cell Counting Kit-8, 72 hours; read-out: IC50 (μM) PC14. The essentials: (§1)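 Anti-proliferative IC50 obtained from 96-well cultures treated 72 h with inhibitor at 0–100 micro-M, growth assessed by a CCK-8 colorimetric readout.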
Background: Tetrazolium assays rely on reduction of a dye to a coloured formazan, in cell work by metabolically active cells.

Assay [3] relates to CCD-18Co. Described as above. Particulars: Homo sapiens; CCD-18Co cells, Cell Counting Kit-8, 72 hours; read-out: IC50 (μM) CCD-18Co. The essentials: as §1
For assay [4], the system named is HFL1. The assay is described as above. The note with it: Homo sapiens; HFL1 cells, Cell Counting Kit-8, 72 hours; read-out: IC50 (μM) HFL1. The essentials:
as §1

For assay [5], the system named is HCT-116. The description is as above. The note with it: Homo sapiens; HCT-116 cells, Cell Counting Kit-8, 72 hours; read-out: IC50 (μM) HCT-116. The essentials:
as §1

Assay [6] has as its system A549. The description is as above. The note with it: Homo sapiens; A549 cells, Cell Counting Kit-8, 72 hours; read-out: IC50 (μM) A549. The essentials:
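After compound exposure of cells in 96-well plates, growth was measured colorimetrically and converted into IC50 values.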

SUV39H2, sequence (Q9H5I1 whole entry): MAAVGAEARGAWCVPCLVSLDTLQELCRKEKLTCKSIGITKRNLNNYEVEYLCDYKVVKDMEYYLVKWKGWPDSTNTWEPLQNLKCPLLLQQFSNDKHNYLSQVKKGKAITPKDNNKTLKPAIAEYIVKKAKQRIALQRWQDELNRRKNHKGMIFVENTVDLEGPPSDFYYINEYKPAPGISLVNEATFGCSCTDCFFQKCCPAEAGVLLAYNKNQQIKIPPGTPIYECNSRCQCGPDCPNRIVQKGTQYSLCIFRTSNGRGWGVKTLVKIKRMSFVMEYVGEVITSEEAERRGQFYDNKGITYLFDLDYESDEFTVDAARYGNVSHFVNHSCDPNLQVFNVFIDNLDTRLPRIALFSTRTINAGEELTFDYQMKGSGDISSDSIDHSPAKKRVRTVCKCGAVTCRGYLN

On to `CCCS(=O)(=O)N1CCN(c2ccn3cc(-c4cc(Cl)c(OC)cc4OC)nc3c2)CC1` [Example 170, 2-(5-chloro-2,4-dimethoxyphenyl)-7-[4-(propylsulfonyl)piperazin-1-yl]imidazo[1,2-a]pyridine], for which the IC50 in assay [1] turned out to be 0.0219 µM; in assay [2], 1.6 µM; in assay [3], 2.6 µM; in assay [4] it was 1.9 µM; in assay [5] it was 2.1 µM; in assay [6], 1.7 µM.
As for `COc1cc(OC)c(-c2cn3ccc(N4CCN(S(=O)(=O)N(C)C)CC4)cc3n2)cc1Cl` [Example 171, 4-[2-(5-chloro-2,4-dimethoxyphenyl)imidazo[1,2-a]pyridin-7-yl]-N,N-dimethylpiperazine-1-sulfonamide], the IC50 came to 0.0135 µM in assay [1]; 2 µM in assay [2]; 0.84 µM in assay [3]; 1.2 µM in assay [4]; 0.94 µM in assay [5]; 0.83 µM in assay [6].
For the compound `CCS(=O)(=O)N1CCN(c2ccn3cc(-c4cc(Cl)c(OC)cc4OC)nc3c2)CC1` [Example 172, 2-(5-chloro-2,4-dimethoxyphenyl)-7-[4-(ethylsulfonyl)piperazin-1-yl]imidazo[1,2-a]pyridine], the IC50 is 0.0125 µM in assay [1]; 1.6 µM in assay [2]; 1.8 µM in assay [3]; 1.8 µM in assay [4]; 1.2 µM in assay [5]; 1.9 µM in assay [6].
Turning to `CCS(=O)(=O)NC1CCN(c2ccn3cc(-c4cc(Cl)c(OC)cc4OC)nc3c2)CC1` [Example 173, N-{1-[2-(5-chloro-2,4-dimethoxyphenyl)imidazo[1,2-a]pyridin-7-yl]piperidin-4-yl}ethanesulfonamide], the 50% inhibitory concentration (IC50) turned out to be 0.00961 µM in assay [1]; 1.6 µM in assay [2]; 0.99 µM in assay [3]; 0.53 µM in assay [4]; 1.9 µM in assay [5]; 1.5 µM in assay [6].
Turning to `CCCS(=O)(=O)NC1CCN(c2ccn3cc(-c4cc(Cl)c(OC)cc4OC)nc3c2)CC1` [Example 174, N-{1-[2-(5-chloro-2,4-dimethoxyphenyl)imidazo[1,2-a]pyridin-7-yl]piperidin-4-yl}propane-1-sulfonamide], the concentration for half-maximal inhibition (IC50) in assay [1] stood at 0.0104 µM; in assay [2], 2.3 µM; in assay [3], 2 µM; in assay [4], 1.7 µM; in assay [5], 1.8 µM; in assay [6], 3 µM.
Take `COc1cc(OC)c(-c2cn3ccc(N4CCC(NS(=O)(=O)Cc5ccccc5)CC4)cc3n2)cc1Cl` [Example 175, N-{1-[2-(5-chloro-2,4-dimethoxyphenyl)imidazo[1,2-a]pyridin-7-yl]piperidin-4-yl}-1-phenylmethanesulfonamide]: the IC50 came to 0.0263 µM in assay [1]; 1.8 µM in assay [2]; 2 µM in assay [3]; 1.9 µM in assay [4]; 1.5 µM in assay [5]; 2 µM in assay [6].
Consider `COc1cc(OC)c(-c2cn3ccc(N4CCC(NS(=O)(=O)C(F)(F)F)CC4)cc3n2)cc1Cl` [Example 176, N-{1-[2-(5-chloro-2,4-dimethoxyphenyl)imidazo[1,2-a]pyridin-7-yl]piperidin-4-yl}-1,1,1-trifluoromethanesulfonamide], for which the IC50 in assay [1] was 0.0641 µM; in assay [2] it was 0.75 µM; in assay [3], 0.53 µM; in assay [4] it was 0.36 µM; in assay [5], 0.55 µM; in assay [6] it was 0.51 µM.
With `COc1cc(OC)c(-c2cn3ccc(N4CCN(S(C)(=O)=O)CC4)nc3n2)cc1Cl` [Example 177, 2-(5-chloro-2,4-dimethoxyphenyl)-7-(4-(methylsulfonyl)piperazin-1-yl)-imidazo[1,2-a]pyrimidine], the IC50 in assay [1] was 0.0408 µM; in assay [2], 2.5 µM; in assay [3], 11 µM; in assay [4], 8 µM; in assay [5], 6 µM; in assay [6], 3.8 µM.
Consider `COc1cc(OC)c(-c2cn3ccc(N4CCN(S(=O)(=O)C(C)C)CC4)cc3n2)cc1Cl` [Example 178, 2-(5-chloro-2,4-dimethoxyphenyl)-7-[4-(isopropylsulfonyl)piperazin-1-yl]imidazo[1,2-a]pyridine], for which the half-inhibitory concentration (IC50) in assay [1] was found to be 0.0143 µM; in assay [2] it was 0.74 µM; in assay [3], 2.1 µM; in assay [4], 1.7 µM; in assay [5], 1.5 µM; in assay [6], 1 µM.
Consider `COc1cc(OC)c(-c2cn3ccc(N4CCN(S(=O)(=O)Cc5ccccc5)CC4)cc3n2)cc1Cl` [Example 179, 7-[4-(benzylsulfonyl)piperazin-1-yl]-2-(5-chloro-2,4-dimethoxyphenyl)-imidazo[1,2-a]pyridine], for which the concentration for half-maximal inhibition (IC50) in assay [1] amounted to 0.0322 µM; in assay [2], 1.6 µM; in assay [3], 1.8 µM; in assay [4] it was 1.8 µM; in assay [5] it was 1.6 µM; in assay [6], 2.1 µM.
With `COc1cc(OC)c(-c2cn3ccc(N4CCN(S(=O)(=O)N(C)C)CC4)nc3n2)cc1Cl` [Example 180, 4-[2-(5-chloro-2,4-dimethoxyphenyl)imidazo[1,2-a]pyrimidin-7-yl]-N,N-dimethylpiperazine-1-sulfonamide], the IC50 in assay [1] was 0.0241 µM; in assay [2], 1.6 µM; in assay [3], 2.6 µM; in assay [4], 1.7 µM; in assay [5], 1.5 µM; in assay [6] it was 1.1 µM.
On to `COc1cc(OC)c(-c2cn3ccc(N4CCC(NS(=O)(=O)N(C)C)CC4)cc3n2)cc1Cl` [Example 181, N-{1-[2-(5-Chloro-2,4-dimethoxyphenyl)imidazo[1,2-a]pyridin-7-yl]piperidin-4-yl}N,N-dimethylsulfonamide], for which the IC50 in assay [1] was determined as 0.0139 µM; in assay [2], 1.5 µM; in assay [3] it was 0.38 µM; in assay [4], 0.35 µM; in assay [5] it was 1.6 µM; in assay [6], 0.76 µM.
As for `COc1cc(OC)c(-c2cn3ccc(N4CCC(N5CCCS5(=O)=O)CC4)cc3n2)cc1Cl` [Example 182, 2-{1-[2-(5-chloro-2,4-dimethoxyphenyl)imidazo[1,2-a]pyridin-7-yl]piperidin-4-yl}isothiazolidine 1,1-dioxide], the IC50 is 0.00697 µM in assay [1]; 1.5 µM in assay [2]; 2.6 µM in assay [3]; 1.8 µM in assay [4]; 1.9 µM in assay [5]; 1.7 µM in assay [6].
Turning to `COC(=O)Nc1ccn2cc(-c3cc(Cl)c(OC)cc3OC)nc2c1` [Example 183, methyl [2-(5-chloro-2,4-dimethoxyphenyl)imidazo[1,2-a]pyridin-7-yl]-carbamate], the IC50 turned out to be 0.0241 µM in assay [1]; 1.9 µM in assay [2]; 1.8 µM in assay [3]; 2 µM in assay [4]; 2.1 µM in assay [5]; 1.8 µM in assay [6].
As to `COc1cc(OC)c(-c2cn3ccc(N4CCCN(C(=O)OC(C)(C)C)CC4)cc3n2)cc1Cl` [Example 184, tert-butyl 4-[2-(5-chloro-2,4-dimethoxyphenyl)imidazo[1,2-a]pyridin-7-yl]-1,4-diazepane-1-carboxylate], the half-maximal inhibitory concentration (IC50) worked out at 0.0285 µM in assay [1]; 2.5 µM in assay [2]; 4.9 µM in assay [3]; 2.2 µM in assay [4]; 5.7 µM in assay [5]; 3.8 µM in assay [6].
For `COc1cc(OC)c(-c2cn3ccc(N4CCC(NS(=O)(=O)CC(C)C)CC4)cc3n2)cc1Cl` [Example 185, N-{1-[2-(5-Chloro-2,4-dimethoxyphenyl)imidazo[1,2-a]pyridin-7-yl]piperidin-4-yl}-2-methylpropane-1-sulfonamide], the IC50 in assay [1] is 0.0127 µM; in assay [2] it was 1.4 µM; in assay [3], 1.9 µM; in assay [4] it was 2 µM; in assay [5], 1.1 µM; in assay [6], 1.6 µM.
For `COc1cc(OCCCN(C)C)c(-c2cn3ccc(N4CCNCC4)nc3n2)cc1Cl` [Example 186, 3-(4-chloro-5-methoxy-2-(7-(piperazin-1-yl)imidazo[1,2-a]pyrimidin-2-yl)phenoxy)-N,N-dimethylpropan-1-amine], the concentration for half-maximal inhibition (IC50) was determined as 0.0619 µM in assay [1]; 12 µM in assay [2]; 35 µM in assay [3]; 7.3 µM in assay [4]; 17 µM in assay [5]; 22 µM in assay [6].
Take `COc1cc(OC)c(-c2cn3ccc(N4CCCN(S(=O)(=O)C5CC5)CC4)cc3n2)cc1Cl` [Example 187, 2-(5-chloro-2,4-dimethoxyphenyl)-7-[4-(cyclopropylsulfonyl)-1,4-diazepan-1-yl]imidazo[1,2-a]pyridine]: the IC50 in assay [1] was found to be 0.00574 µM; in assay [2], 1.4 µM; in assay [3], 5 µM; in assay [4] it was 2.1 µM; in assay [5], 1.9 µM; in assay [6] it was 2.1 µM.
Consider `COc1cc(OC)c(-c2cn3ccc(N4CCCN(S(=O)(=O)C(F)(F)F)CC4)cc3n2)cc1Cl` [Example 188, 2-(5-chloro-2,4-dimethoxyphenyl)-7-{4-[(trifluoromethyl)sulfonyl]-1,4-diazepan-1-yl}imidazo[1,2-a]pyridine], for which the half-maximal inhibitory concentration (IC50) in assay [1] amounted to 0.0369 µM; in assay [2], 1.6 µM; in assay [3], 1.4 µM; in assay [4], 1.5 µM; in assay [5], 1.6 µM; in assay [6], 1.6 µM.
